Counter-ions that a name gives are not always drawn. Like-named read-outs stand apart in the source and are kept apart here.
Columns and labels:
[1] = tested on: Nrf2-dependent ARE transcriptional activity; assay: ARE-luc luciferase reporter gene assay in HepG2 cells (qHTS); type: cell-based; set-up: Emax: reference not given here; settings: for EC50: read-out: ARE-luc EC50
mutated ARE = type: cell-based
[2] = tested on: antioxidant response element (ARE) signaling pathway; assay: ARE-bla β-lactamase reporter gene assay in HepG2 cells (qHTS); type: cell-based, human; settings: for EC50: read-out: ARE-bla EC50; for activity in ARE-bla assay (words): follow-up studies, up to 46 µM
[3] = Homo sapiens, HepG2, confirmation/follow-up studies, activation of ARE reporter as % of positive control (β-napthoflavone), read-out: ARE-luc Efficacy
[4] = Homo sapiens, confirmation/follow-up studies, HepG2, 16 hr exposure, mean ± SD
[5] = confirmation/follow-up studies, HepG2, mean ± SD
[6] = Homo sapiens, HepG2, confirmation/follow-up studies, activation of ARE reporter as % of positive control (β-napthoflavone), read-out: ARE-bla Efficacy
[7] = confirmation/follow-up studies, HepG2, 16 hr exposure, mean ± SD
[8] = confirmation/follow-up studies, activation of ARE reporter as % of positive control (β-napthoflavone)
[9] = primary qHTS screening, 0.59 nM to 92 µM
[10] = Homo sapiens, HepG2, confirmation/follow-up studies, […], read-out: ARE-luc Efficacy
[11] = Homo sapiens, HepG2, confirmation/follow-up studies, […], read-out: ARE-bla Efficacy
[12] = follow-up studies, up to 46 µM, listed as chlorambucil
[13] = confirmation/follow-up studies, […]

What does the source list for `Cc1ccc(O)c(N)c1` [2-Amino-4-methylphenol]?
Emax [1, 3]: 90%; EC50 [1, 4]: 24 ± 7.1 µM; ARE-bla mutant IC50 (mutated ARE; [5]): inactive; Emax [2, 6]: 76%; EC50 [2, 4]: 12 ± 4.8 µM

What does the source list for `O=[N+]([O-])c1cc(Cl)c(Cl)c(Cl)c1Cl` [2,3,4,5-Tetrachloronitrobenzene]?
Emax [1, 3]: 124%; EC50 [1, 4]: 27.7 ± 6.7 µM; ARE-bla mutant IC50 (mutated ARE; [5]): inactive; Emax [2, 6]: 56%; EC50 [2, 4]: 9.4 ± 3.2 µM

`Clc1ccc(C(c2ccc(Cl)cc2)C(Cl)Cl)cc1` [Rhothane (TDE), Tetrachlorodiphenylethane] was tested. Which EC50 [1, 7] did it give?
Its EC50 is 13.5 ± 3.3 µM.

And the “ARE-luc Efficacy” value [1, 8]?
The value was 32%.

What about the “activity in ARE-luc assay (words)” value ([1]; follow-up studies, up to 46 µM) of the same compound?
The value was “active”.

What about the “activity in ARE-luc assay (words)” value [1, 9] of the same compound?
The value was “inactive”.

And the “ARE-bla mutant IC50” value (mutated ARE; [5])?
Its value is “inactive”.

And the EC50 [2, 7]?
The EC50 was 16.4 ± 7.3 µM.

What about the “ARE-bla Efficacy” value [2, 8] of the same compound?
The value was 43%.

What does the source list for `ClC1=C(Cl)[C@]2(Cl)[C@@H]3[C@@H]4C[C@@H]([C@H]5O[C@@H]45)[C@@H]3[C@@]1(Cl)C2(Cl)Cl` [Dieldrin]?
Emax [1, 10]: 27%; EC50 [1, 4]: 14.2 ± 15 µM; ARE-bla mutant IC50 (mutated ARE; [5]): inactive; Emax [2, 11]: 40%; EC50 [2, 4]: 15.5 ± 11.8 µM

`O=C(O)C1C(C(=O)O)C2(Cl)C(Cl)=C(Cl)C1(Cl)C2(Cl)Cl` (centres unmarked) [Chlorendic acid] was tested. Which “ARE-luc EC50” value [1] did it give?
Its value is “inactive”.

And the “ARE-bla mutant IC50” value (mutated ARE)?
The value was “inactive”.

And the “ARE-bla EC50” value [2]?
The value was “inactive”.

For `C/C=C1/C(=O)C[C@H]2[C@@H]3CCC4=CC(=O)CC[C@]4(C)[C@H]3CC[C@]12C` [Guggulsterones E], which “ARE-luc Efficacy” value [1] is on record?
Its value is 115.

What about the EC50 [1] of the same compound?
The EC50 was 15.4 ± 2.6 µM.

What about the “ARE-bla mutant IC50” value (mutated ARE) of the same compound?
Its value is “inactive”.

What about the “ARE-bla Efficacy” value [2] of the same compound?
The value was 106.

What about the EC50 [2] of the same compound?
The EC50 was 5 ± 3.1 µM.

Which results are given for `c1ccc2cc3c(cc2c1)-c1cccc2cccc-3c12` [Benzo(k)fluoranthene]?
Emax [1, 10]: 103%; EC50 [1, 4]: 4.9 ± 2.2 µM; activity in ARE-bla-mut assay (words) (mutated ARE): may exhibit autofluorescence; ARE-bla mutant Efficacy (mutated ARE; confirmation/follow-up studies, normalized to DMSO (0%) and ARE-bla maximal β-napthoflavone response (100%)): 160%; Emax [2, 11]: 114%; EC50 [2, 4]: 1.6 ± 0.7 µM

For `CN(C)c1ccc(N)cc1` [N,N-Dimethyl-p-phenylenediamine], which Emax [1, 10] is on record?
The Emax was 24%.

What about the EC50 [1, 4] of the same compound?
The EC50 was 11.8 ± 4.4 µM.

And the “ARE-bla mutant IC50” value (mutated ARE; [5])?
Its value is “inactive”.

And the Emax [2, 11]?
Its Emax is 80%.

What about the EC50 [2, 4] of the same compound?
The EC50 was 9.6 ± 0.6 µM.

With `O=C(O)CCCc1ccc(N(CCCl)CCCl)cc1` [Chlorambucil, reference compound] as the compound, how does the “ARE-luc EC50” value [1, 7] read?
The value was “inactive”.

And the “activity in ARE-luc assay (words)” value ([1]; follow-up studies, up to 46 µM)?
The value was “inactive in all assays”.

What about the “activity in ARE-luc assay (words)” value [1, 12] of the same compound?
The value was “inactive across all assays”.

And the “ARE-bla mutant IC50” value (mutated ARE; [5])?
The value was “inactive”.

What about the “activity in ARE-bla-mut assay (words)” value (mutated ARE; follow-up studies, up to 46 µM) of the same compound?
Its value is “inactive in all assays”.

And the “activity in ARE-bla-mut assay (words)” value (mutated ARE; [12])?
Its value is “inactive across all assays”.

And the “ARE-bla EC50” value [2, 7]?
The value was “inactive”.

What about the “activity in ARE-bla assay (words)” value [2] of the same compound?
Its value is “inactive in all assays”.

What about the “activity in ARE-bla assay (words)” value ([2]; listed as chlorambucil) of the same compound?
Its value is “inactive across all assays”.

Which “ARE-luc Efficacy” value [1] does the source give for 1,3-Dinitronapthalene here?
The value was 180%.

And the EC50 [1]?
The EC50 was 16.2 ± 11 µM.

What about the “ARE-bla mutant IC50” value (mutated ARE) of the same compound?
The value was “inactive”.

And the “ARE-bla Efficacy” value [2]?
The value was 80%.

What about the EC50 [2] of the same compound?
Its EC50 is 1.2 ± 0.2 µM.

Which results are given for `Nc1ccccc1O` [o-Aminophenol]?
EC50 ([1]; Homo sapiens, HepG2, 16 h): 26.2 ± 3.3 µM; Emax ([1]; Homo sapiens, HepG2, read-out: ARE-luc Efficacy): 234%; ARE-bla mutant IC50 (mutated ARE): inactive; EC50 ([2]; Homo sapiens, HepG2, 16 h): 6.8 ± 4.1 µM; Emax ([2]; Homo sapiens, HepG2, read-out: ARE-bla Efficacy): 95%

With `CC(C)CC(C)Nc1ccc(Nc2ccccc2)cc1` (centres unmarked) [n-(1,3-Dimethylbutyl)-n`-phenyl-p-phenylenediamine] as the compound, how does the “activity in ARE-luc assay (words)” value ([1]; follow-up studies, up to 46 µM) read?
The value was “inactive”.

What about the “activity in ARE-luc assay (words)” value [1, 9] of the same compound?
Its value is “active”.

What about the “ARE-bla mutant IC50” value (mutated ARE; [5]) of the same compound?
The value was “inactive”.

And the Emax [2, 6]?
Its Emax is 89%.

And the EC50 [2, 4]?
The EC50 was 17.3 ± 5 µM.

Which results are given for `CNc1ccc(O)cc1` [N-Methyl-p-aminophenol sulfate]?
Emax [1, 3]: 202%; EC50 [1, 4]: 24.6 ± 9.2 µM; ARE-bla mutant IC50 (mutated ARE): inactive; Emax [2, 6]: 37%; EC50 [2, 4]: 13.6 ± 3.2 µM

`Nc1ccc(N)c(Cl)c1.O=S(=O)(O)O` [2-Chloro-p-phenylenediamine SO4] was tested. Which EC50 [1, 7] did it give?
The EC50 was 26.5 ± 6 µM.

And the “ARE-luc Efficacy” value [1, 13]?
The value was 83%.

And the “ARE-bla mutant IC50” value (mutated ARE; [5])?
The value was “inactive”.

And the EC50 [2, 7]?
Its EC50 is 17.1 ± 4.1 µM.

And the “ARE-bla Efficacy” value [2, 13]?
Its value is 72%.

What does the source list for `Cc1cccc2sc(N)nc12` [2-Amino-4-methylbenzothiazole]?
ARE-luc EC50 [1, 7]: inactive; ARE-bla mutant IC50 (mutated ARE; [5]): inactive; Emax [2, 6]: 49%; EC50 [2, 4]: 10.1 ± 2.1 µM; activity in ARE-bla assay (words) [2]: active only in the ARE-bla assay

From paper PMC3440086, “Profiling Environmental Chemicals for Activity in the Antioxidant Response Element Signaling Pathway Using a High Throughput Screening Approach” (Environmental Health Perspectives, 2012)
